These are literature values, as cited in paper PMC2818531 (Bioorganic & medicinal chemistry letters, 2009).

This data set deals with HIV gp41 six-helix bundle (6-HB) (Human immunodeficiency virus type 1 group M subtype B, UniProt P04578). The conditions noted are these: read-out: EC50, inhibition of gp41 6-helical bundle formation.
HIV gp41 six-helix bundle (6-HB), sequence (P04578 546-581): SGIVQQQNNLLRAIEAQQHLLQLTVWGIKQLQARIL

For orientation: EC50 means the concentration at which the effect is half-maximal. In the case of `Cc1ccc(C)n1-c1ccc(O)c(C(=O)O)c1` [Ligand A12], the EC50 is 37.4 µM.
